The record followed here is ChEMBL document CHEMBL1201862, “PubChem BioAssay data set” (2004).

Common to all, as to assay: NCI anticancer screen, dose series, 48 h
Assay [1] has as its system MDA-MB-231.
The test system of assay [2] is MOLT-4.
In assay [3] the test system is HCT-116.
In assay [4] the test system is CCRF-CEM.
The test system of assay [5] is Malme-3M.
Assay [6] concerns SR.
In assay [7] the test system is HT-29.
The subject of assay [8] is NCI-H226.
In assay [9] the test system is SNB-75.
The test system of assay [10] is UO-31.
Assay [11] deals with M14.
The test system of assay [12] is SNB-19.
The test system of assay [13] is SF-268.
The subject of assay [14] is NCI-H522.
Assay [15] has as its system A498.
Assay [16] relates to UACC-257.
The subject of assay [17] is NCI/ADR-RES.
For assay [18], the system named is SF-295.
Assay [19] has as its system U-251.
Assay [20] relates to MDA-MB-435.

Structures are written as SMILES.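 Growth conditions: 96-well plates. Treatment: test compound, 48 hours, 5 concentrations. Analysis: linear interpolation between bracketing concentrations; unreached endpoints set to highest concentration. GI50 marks 50% less growth.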 Active and inactive are the calls of the source. Rule as the data show it: active = GI50 up to about 1.1 µM and inactive = higher.

With `CCN(CC)CCOc1ccccc1/C=C/c1noc2ccccc12`, the GI50 was 11.4 µM (inactive) in assay [1]; 12.1 µM (inactive) in assay [2]; 6.22 µM (inactive) in assay [3]; 15.2 µM (inactive) in [4]; 1.01 µM (active) in assay [5]; 11.7 µM (inactive) in [6]. In addition, the GI50 is 2.27 µM (inactive) in assay [7]; 16.3 µM (inactive) in assay [8]; 10.4 µM (inactive) in [9]; 6.11 µM (inactive) in assay [10]; 2.54 µM (inactive) in [11]; 13.6 µM (inactive) in [12]. Further, the GI50 in assay [13] was 17.2 µM (inactive); in assay [14], 8.17 µM (inactive); in assay [15], 17.2 µM (inactive); in [16], 3.95 µM (inactive); in assay [17], 19 µM (inactive); in assay [18], 16.2 µM (inactive).
With `N#CC(C#N)=C/C=C/c1ccccc1[N+](=O)[O-]`, the GI50 was 2.59 µM (inactive) in assay [1]; 4.54 µM (inactive) in assay [2]; 1.87 µM (inactive) in assay [3]; 7.57 µM (inactive) in [4]; 3.73 µM (inactive) in assay [5]; 3.54 µM (inactive) in [6]. Moreover, the GI50 in [7] is 6.62 µM (inactive); in [8] it was > 10 µM (inactive); in assay [9] it was > 10 µM (inactive); in assay [10] it was 5.78 µM (inactive); in [19], > 10 µM (inactive); in assay [12], > 10 µM (inactive). Further, the GI50 in assay [13] was > 10 µM (inactive); in assay [14], 3.33 µM (inactive); in assay [15] it was > 10 µM (inactive); in [16] it was 2.68 µM (inactive); in [17], 2.16 µM (inactive); in assay [18] it was > 10 µM (inactive).
Consider `COc1ccc(/C=c2/sc3n(c2=O)C(c2ccccc2)C2(O)CCCCC2N=3)cc1` (configuration not stated), for which the GI50 in assay [20], in assay [2], in assay [3], in assay [4], in assay [5] and in assay [6] was > 12.5 µM (inactive) in each case. The GI50 in assay [7], in [8], in assay [9], in assay [10], in assay [11] and in assay [19] was > 12.5 µM (inactive) in each case. The GI50 in assay [12], in assay [13], in assay [14] and in assay [16] was > 12.5 µM (inactive) in each case.
Turning to `CC(=O)c1c[nH]cc1CO`, the GI50 in [2], in [3], in assay [4], in assay [5], in assay [6] and in assay [8] was > 10 µM (inactive) throughout. Also, the GI50 in assay [9], in assay [10], in [11], in [19], in assay [12] and in assay [13] was > 10 µM (inactive) in each case. Further, the GI50 in assay [15], in [17] and in assay [18] was > 10 µM (inactive) in each case.
Turning to `COC(=O)CCC(=O)CC(=O)C(=O)Nc1c(Cl)cc([N+](=O)[O-])cc1Cl`, the GI50 in assay [2] was > 100 µM (inactive); in assay [3] it was 42.3 µM (inactive); in assay [4] it was 57.3 µM (inactive); in assay [5], > 100 µM (inactive); in [6], 27.2 µM (inactive); in [7] it was > 100 µM (inactive). Moreover, the GI50 in assay [8] is > 100 µM (inactive); in assay [9], 47.2 µM (inactive); in [10], > 100 µM (inactive); in assay [11] it was > 100 µM (inactive); in assay [19], > 100 µM (inactive); in [12], > 100 µM (inactive). The GI50 in [13] is > 100 µM (inactive); in assay [14] it was 45.3 µM (inactive); in [15] it was 57.3 µM (inactive); in [16], > 100 µM (inactive); in assay [18], > 100 µM (inactive).
Take `Cc1ccccc1C(C#N)/C(=N/NC(=O)c1cc2ccccc2cc1O)C(=O)Nc1cccc(Cl)c1` (configuration not stated): the GI50 was 10.9 µM (inactive) in assay [2]; 14.5 µM (inactive) in assay [3]; 4.36 µM (inactive) in assay [4]; 30.8 µM (inactive) in assay [5]; 12.6 µM (inactive) in [6]; 42.1 µM (inactive) in assay [7]. Moreover, the GI50 is 18.5 µM (inactive) in assay [8]; 6.24 µM (inactive) in assay [9]; 3.13 µM (inactive) in assay [10]; 18.6 µM (inactive) in assay [11]; 25.6 µM (inactive) in assay [19]; 37.9 µM (inactive) in assay [12]. Moreover, the GI50 is 7.69 µM (inactive) in assay [13]; 20.9 µM (inactive) in [14]; 41.4 µM (inactive) in assay [15]; 20.7 µM (inactive) in assay [16]; 21.1 µM (inactive) in [18].
With `COc1c(OC2OC(CO)C(O)C(O)C2O)cc2c(c1OC)-c1ccc(OC)c(=O)cc1[C@@H](NC(C)=O)CC2` (some centres not stated), the GI50 is > 100 µM (inactive) in assay [2]; > 100 µM (inactive) in [3]; 65.2 µM (inactive) in assay [4]; 61.5 µM (inactive) in assay [5]; > 100 µM (inactive) in assay [6]; > 100 µM (inactive) in assay [7]. Also, the GI50 in [8] was > 100 µM (inactive); in [9] it was 25.8 µM (inactive); in [10] it was > 100 µM (inactive); in assay [11], 76.4 µM (inactive); in [19] it was > 100 µM (inactive); in [12], > 100 µM (inactive). Further, the GI50 in assay [13] was > 56.2 µM (inactive); in assay [14] it was 43.8 µM (inactive); in [15], > 100 µM (inactive); in assay [16], > 84.5 µM (inactive); in [18] it was > 89.7 µM (inactive).
With `O=[N+]([O-])c1ccc(C2CC(c3ccccc3Cl)=Nc3ccccc3[S+]2[O-])cc1` (configuration not stated), the GI50 is 2.29 µM (inactive) in [1]; 1.9 µM (inactive) in [2]; 1.88 µM (inactive) in assay [3]; 1.48 µM (inactive) in assay [4]; 9.91 µM (inactive) in assay [5]; 2.84 µM (inactive) in assay [6]. In addition, the GI50 was 2.5 µM (inactive) in [7]; 5.86 µM (inactive) in [8]; 5.55 µM (inactive) in [9]; 2.06 µM (inactive) in assay [10]; 5.71 µM (inactive) in assay [11]; 3.05 µM (inactive) in [19]. Moreover, the GI50 in [12] was 3.63 µM (inactive); in [13], 8.83 µM (inactive); in assay [14], 1.15 µM (inactive); in assay [15] it was 2.34 µM (inactive); in assay [16], 15.8 µM (inactive); in assay [18] it was 5.55 µM (inactive).
With `CCOc1ccc2c(c1)[n+]([O-])c(C(N)=O)c(N)[n+]2[O-]`, the GI50 in assay [2] was > 100 µM (inactive); in [3], > 100 µM (inactive); in assay [4] it was 94 µM (inactive); in [5], > 100 µM (inactive); in [6], > 100 µM (inactive); in assay [7] it was > 100 µM (inactive). Also, the GI50 in assay [8], in assay [9], in assay [10], in [11], in [19] and in assay [12] was > 100 µM (inactive) each time. The GI50 in assay [13], in [14], in [15], in assay [16] and in [18] was > 100 µM (inactive) throughout.
As for `NC1=NCC(c2ccccn2)C1c1ccc(F)cc1` (configuration not stated), the GI50 in assay [2], in assay [3], in assay [4], in assay [5], in assay [6] and in assay [7] was > 100 µM (inactive) each time. Further, the GI50 in assay [8], in assay [9], in assay [10], in assay [11], in assay [19] and in assay [12] was > 100 µM (inactive) in each case. Further, the GI50 in assay [13], in assay [14], in assay [15], in assay [16] and in [18] was > 100 µM (inactive) throughout.
For the molecule `O=C1C(N2C(=O)c3ccccc3C2=O)CN1C(COCc1ccccc1)c1ccc(OCc2ccccc2)cc1` (configuration not stated), the GI50 in [2], in assay [3], in assay [4], in assay [5], in assay [6] and in assay [7] was > 100 µM (inactive) throughout. Besides, the GI50 in assay [8], in assay [9], in assay [10], in assay [11], in assay [19] and in [12] was > 100 µM (inactive) throughout. The GI50 in assay [13], in [14], in [15], in [16] and in assay [18] was > 100 µM (inactive) throughout.
